Test results reported in paper PMC9482650, “Quantitative fragmentomics allow affinity mapping of interactomes” (Nature Communications, 2022).
Primed or numbered codes have the meaning given here. Ends that are not written are not given here. * marks the point of attachment. Biotin = O=C1N[C@H]2[C@H](CS[C@H]2CCCCC(=O)*)N1; ttds″ = trioxatridecan-succinamic acid linker

Assays:
[1] = system: Jurkat cell extract preys; assay: PDZ-AP-MS, biotinylated MBP-PDZ baits; assay type: binding, human
Method: (§1) For PDZ-AP-MS experiments, PDZ domains were cloned as His6-AviTag-MBP-PDZ constructs. For co-expression with BirA, E. coli BL21(DE3) cells were co-transformed with His6-AviTag-MBP, or His6-AviTag-MBP-PDZ-coding and PET21a-BirA (Addgene #20857) plasmids. Simultaneously to IPTG induction, 50 µM biotin was added to the media. After cell harvesting, the lysis buffer was also supplemented with 50 µM biotin. Otherwise, expression and double affinity purification was identical as previously described in details.
(§2) For PBM-AP-MS experiments, 30 μl streptavidin resin was mixed with biotin or peptide at 50–60 μM concentration in 6–6.5 resin volume for 60 min to achieve resin saturation. For PDZ-AP-MS experiments, 30 μl streptavidin resin was mixed with biotinylated MBP or MBP-PDZ at 40-50 μM concentration in >1000× resin volume for 60 min to achieve resin saturation. After saturation, resins were washed a single time (ten resin volume, holdup buffer), and were depleted with biotin (1 mM biotin, 5–10 resin volume, 10 min). Finally, resins were washed two times. 0.5 ml 2 mg/ml cell lysate was added to the dry resin (1 mg total input) and were incubated at 4 °C for 2 h. Then, the beads were washed three times with 10 resin volume buffer containing: 50 mM TRIS pH 8.5, 150 mM NaCl, 1% TritonX-100, 10× complete EDTA-free protease inhibitor cocktail, 2 mM EDTA, 1 mM TCEP. Then, the beads were washed two times with ten resin volume buffer containing: 50 mM TRIS pH 8.5, 150 mM NaCl, 1 mM TCEP. Finally, captured protein was eluted from the resin in two steps and the eluted fractions were pooled. For each elution the beads were incubated for 30 min with three resin volume buffer containing: 20 mM TRIS pH8.5, 100 mM NaCl, 500 μM TCEP, 8 M Urea. Between each step, the beads were separated by mild centrifugation and the supernatant was removed by gentle pipetting.
(§3) The samples were precipitated with TCA 20% overnight at 4 °C and centrifuged at 14,000 rpm for 10 min at 4 °C. The protein pellets were washed twice with 1 mL cold acetone and air dried. The protein extracts were solubilized in urea 8 M, reduced with 5 mM TCEP for 30 min, and alkylated with 10 mM iodoacetamide for 30 min in the dark. Double digestion was performed at 37 °C with 500 ng endoproteinase Lys-C for 4 h, followed by fourfold dilution and an overnight digestion with 500 ng trypsin. Peptide mixtures were then desalted on C18 spin-column and dried on Speed-Vacuum.
(§4) Samples were analyzed using an Ultimate 3000 nano-RSLC (Thermo Scientific, San Jose California) coupled in line with a LTQ-Orbitrap ELITE mass spectrometer via a nano-electrospray ionization source (Thermo Scientific, San Jose California). […]

[2] = system: CASK; assay: PBM-AP-MS from Jurkat extract; assay type: binding, Homo sapiens; settings: Jurkat lysate
[3] = system: DLG1; assay: PBM-AP-MS from Jurkat extract; assay type: binding, Homo sapiens
[4] = system: LIN7C; assay: PBM-AP-MS from Jurkat extract; assay type: binding, Homo sapiens
[5] = system: MAGI1; assay: PBM-AP-MS from Jurkat extract; assay type: binding, Homo sapiens
[6] = system: SCRIB; assay: PBM-AP-MS from Jurkat extract; assay type: binding, Homo sapiens
[7] = system: LIN7C; assay: PBM-AP-MS from HeLa extract; assay type: binding, Homo sapiens; settings: prey LIN7C (Q9NUP9), PBM bait vs biotin control
[8] = system: SCRIB; assay: PBM-AP-MS from HeLa extract; assay type: binding, Homo sapiens; settings: prey SCRIB (Q14160), PBM bait vs biotin control
[9] = system: SNTB2; assay: PBM-AP-MS from HeLa extract; assay type: binding, Homo sapiens; settings: prey SNTB2 (Q13425), PBM bait vs biotin control
[10] = system: CPVL; assay: PBM-AP-MS from HeLa extract; assay type: binding, Homo sapiens; settings: prey CPVL (Q9H3G5), PBM bait vs biotin control
[11] = system: PDZK1; assay: PBM-AP-MS from HeLa extract; assay type: binding, Homo sapiens; settings: prey PDZK1 (Q5T2W1), PBM bait vs biotin control
[12] = system: LIN7C; assay: PBM-AP-MS from HaCat extract; assay type: binding, Homo sapiens; settings: prey LIN7C (Q9NUP9), PBM bait vs biotin control (Biot03)
[13] = system: CASK; assay: PBM-AP-MS from HaCat extract; assay type: binding, Homo sapiens; settings: prey CASK (O14936), PBM bait vs biotin control (Biot03)
[14] = system: MPP7; assay: PBM-AP-MS from HaCat extract; assay type: binding, Homo sapiens; settings: prey MPP7 (Q5T2T1), PBM bait vs biotin control (Biot03)
[15] = system: SYNJ2BP; assay: PBM-AP-MS from HaCat extract; assay type: binding, Homo sapiens; settings: prey SYNJ2BP (P57105), PBM bait vs biotin control (Biot03)
[16] = system: SLC9A3R2; assay: PBM-AP-MS from HaCat extract; assay type: binding, Homo sapiens; settings: prey SLC9A3R2 (Q15599), PBM bait vs biotin control (Biot03)
[17] = system: MPP5; assay: PBM-AP-MS from Jurkat extract; assay type: binding, Homo sapiens; settings: prey MPP5 (Q8N3R9), PBM bait vs biotin control
Excerpt: Supplement 41467_2022_33018_MOESM5_ESM.xlsx, sheet "Jurkat HPV59-E6" | column: -LOG(P-Value); Difference log2; Ratio HPV59/biot

[18] = system: MAGI3; assay: PBM-AP-MS from HaCat extract; assay type: binding, Homo sapiens; settings: prey MAGI3 (Q5TCQ9), PBM bait vs biotin control (Biot03)
Excerpt: (§5) Supplement 41467_2022_33018_MOESM5_ESM.xlsx, sheet "HaCat HPV59-E6" | column: -LOG(P-value); Difference log2; Ratio HPV59E6/Biot03

[19] = system: MPP5; assay: PBM-AP-MS from HaCat extract; assay type: binding, Homo sapiens; settings: prey MPP5 (Q8N3R9), PBM bait vs biotin control (Biot03)
Excerpt: as §5

[20] = target: MAGI1_2 PDZ (Homo sapiens, UniProt Q96QZ7); assay: Competitive fluorescence polarization (FP) assay; assay type: binding; settings: read-out: pKd FP (converted)
MAGI1_2 PDZ, sequence (Q96QZ7 472-554 limits assumed): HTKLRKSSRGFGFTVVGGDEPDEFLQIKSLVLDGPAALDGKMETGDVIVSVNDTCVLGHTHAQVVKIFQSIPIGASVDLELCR
Method: In direct fluorescence polarization assay, the fluorophore label can interfere with affinity determination and can cause large experimental bias. For this reason, affinities were determined with competitive FP measurements where the bound fluorescent peptide is chased out by increasing concentration of unlabeled competitor. In the fitting procedure, affinities of both peptides are considered. Each PDZ-domain was first tested with labeled peptides in direct experiments and then optimal labeled peptides were used in competitive experiments.
Double affinity-purified His6-MBP-PDZ were used for affinity measurements by FP. Fluorescence polarization was measured with a PHERAstar microplate reader by using 485 ± 20 nm and 528 ± 20 nm band-pass filters for excitation and emission, respectively. […] In total, the polarization of the probe was measured at eight different protein concentrations (whereas one contained no protein and corresponded to the free peptide). […] The dissociation constants of the direct and competitive FP experiments were obtained by fitting the measured direct data with a quadratic binding equation first and by fitting the measured competitive data with a competitive equation, using several obtained parameters from the first fit[71]. In part, competitive fluorescence polarization data were taken from refs. [22],[21]. […]

[21] = system: HaCat cell extract preys; assay: PDZ-AP-MS, biotinylated MBP-PDZ baits; assay type: binding, human
Method: as §1, §2, §3, §4

[22] = fold enrichment of prey vs biotin control resin, Jurkat lysate
[23] = prey enrichment on PBM bait resin vs biotin control resin, Jurkat lysate, technical triplicates
[24] = Jurkat extract, prey DLG1 (Q12959), PBM bait vs biotin control
[25] = Jurkat extract, prey LIN7C (Q9NUP9), PBM bait vs biotin control
[26] = Jurkat extract, prey MAGI1 (Q96QZ7), PBM bait vs biotin control
[27] = Jurkat extract, prey SCRIB (Q14160), PBM bait vs biotin control

## ANXA2
[1]; bait SCRIB_2 PDZ vs MBP, enrichment of prey
  Difference log2: 5.895
[1]; bait SCRIB_2 PDZ, fold change of prey
  Ratio SCRIB_2/MBP: 59.5253

## SSRTRRETQL [HPV16-E6]
[2]; fold enrichment of prey vs biotin control resin
  Ratio bait/biot: 11.3007
[2]; prey enrichment on PBM bait resin vs biotin control resin, technical triplicates
  Difference log2: 3.498
[3]; [22]
  Ratio bait/biot: 502.402
[3]; [23]
  Difference log2: 8.9727
[4]; [22]
  Ratio bait/biot: 32.0459
[4]; [23]
  Difference log2: 5.002
[5]; [22]
  Ratio bait/biot: 36.8169
[5]; [23]
  Difference log2: 5.2023
[6]; [22]
  Ratio bait/biot: 256.729
[6]; [23]
  Difference log2: 8.0041
[7]
  Difference log2: 7.182
  Ratio bait/biot: 145.232
[8]
  Difference log2: 7.71
  Ratio bait/biot: 209.394
[9]
  Difference log2: 5.25
  Ratio bait/biot: 38.0503
[10]
  Difference log2: 4.342
  Ratio bait/biot: 20.282
[11]
  Difference log2: 4.4
  Ratio bait/biot: 21.1168
[12]
  Difference log2: 8.385
  Ratio bait/Biot03: 334.203
[13]
  Difference log2: 6.666
  Ratio bait/Biot03: 101.558
[14]
  Difference log2: 5.9997
  Ratio bait/Biot03: 63.9865
[15]
  Difference log2: 4.095
  Ratio bait/Biot03: 17.0893
[16]
  Difference log2: 3.853
  Ratio bait/Biot03: 14.4499

## HPV59-E6 ({Biotin-ttds″}-QRQARSETLV)
[3]; [24]
  Difference log2: 9.078
  Ratio bait/biot: 540.448
[4]; [25]
  Difference log2: 5.541
  Ratio bait/biot: 46.5688
[5]; [26]
  Difference log2: 6.509
  Ratio bait/biot: 91.0533
[6]; [27]
  Difference log2: 4.363
  Ratio bait/biot: 20.5739
[17]
  Difference log2: 4.755
  Ratio bait/biot: 26.9941
[12]
  Difference log2: 8.47
  Ratio bait/Biot03: 354.524
[13]
  Difference log2: 7.278
  Ratio bait/Biot03: 155.163
[14]
  Difference log2: 5.592
  Ratio bait/Biot03: 48.2208
[18]
  Difference log2: 2.908
  Ratio bait/Biot03: 7.505
[19]
  Difference log2: 3.6952
  Ratio bait/Biot03: 12.9528

## CC(C)C[C@H](NC(=O)[C@H](CCC(N)=O)NC(=O)[C@@H](NC(=O)[C@H](CCC(=O)O)NC(=O)[C@H](CCCNC(=N)N)NC(=O)[C@H](CCCNC(=N)N)NC(=O)[C@@H](NC(=O)[C@H](CCCNC(=N)N)NC(=O)[C@H](CO)NC(=O)[C@H](CO)NC(=O)CCC(=O)NCCCOCCOCCOCCCNC(=O)CCCC[C@@H]1SC[C@@H]2NC(=O)N[C@@H]21)[C@@H](C)O)[C@@H](C)OP(=O)(O)O)C(=O)O [HPV16-E6_-2P]
[20]
  Kd: 2520 µM

## EXOC1
[21]; bait DLG1_2 PDZ vs MBP, enrichment of prey
  Difference log2: 4.458
[21]; bait DLG1_2 PDZ, fold change of prey
  Ratio DLG1_2/MBP: 21.9853
